Test results: PubChem BioAssay AID850 (SRMLSC, 2007)
Calls of active or inactive are those of the source. The rule behind the calls is not given here.

Legend:
[1] = tested on: Saccharomyces cerevisiae growth inhibition, permissive control; experiment: yeast lifespan-shortening chemical project counter-assay, dose-response inhibition of growth under permissive conditions (AID 850);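 note: growth read as optical density after one day of incubation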
[2] = as above; details: Saccharomyces cerevisiae growth inhibition, permissive control, measured here: maximum growth inhibition, stronger effect = higher value

| SMILES | IC50 [1] | inhibition ([2]; at 50 µM) | further results |
| --- | --- | --- | --- |
| CN(C)c1ccc(/C=C/c2ccc3ccccc3[n+]2C)cc1 | 22.3 µM | 85.8% |  |
| Cc1ccccc1NC(=S)c1nc2ccccc2[nH]1 | 11.8 µM | 95.3% |  |
| Oc1cccc(C=NCc2ccccc2)c1O | 10.4 µM | 98.8% |  |
| Cc1nc2c(F)c(F)c(C(F)(F)F)c(F)c2[nH]1 | > 100 µM (inactive) |  | inhibition ([2]; at 0.391 µM): 17.4% |
| O=C1CSC(=S)N1c1cccnc1 | > 100 µM (inactive) | 14.8% |  |
| CC1=NNC(=O)/C1=C\c1cn(-c2ccccc2)nc1-c1cccs1 | 8.18 µM | 98% |  |
| CCOC(=O)c1cc([N+](=O)[O-])c([N+](=O)[O-])cc1NC(C)=O | < 0.098 µM |  | inhibition ([2]; at 12.5 µM): 99.6% |
| COc1ccc(S(=O)(=O)n2oc(=O)cc2-c2ccccc2)cc1OC | > 100 µM (inactive) |  | inhibition ([2]; at 1.563 µM): 9.27% |
| c1ccc2c(c1)nnn1c3ccccc3nc21 | > 100 µM (inactive) |  | inhibition ([2]; at 3.125 µM): 14.6% |
| Cc1cc(N/N=C/c2ccc(Cl)cc2Cl)nc(NCc2ccccc2)n1 | 31.7 µM | 99.2% |  |
| N/C(Cc1ccc(Cl)c(Cl)c1)=N\OC(=O)c1cccs1 | > 100 µM (inactive) |  | inhibition ([2]; at 0.195 µM): 4.64% |
| CC(C)N=c1scc(-c2cccs2)n1/N=C/c1ccc(O)c(O)c1O | > 100 µM (inactive) |  | inhibition ([2]; at 0.195 µM): 2.13% |
| O=c1cnn([C@@H]2O[C@H](CO)[C@@H](O)[C@H]2O)c(=O)[nH]1 | 16.6 µM | 68.7% |  |
| Cc1nc(N/N=C/c2ccccn2)sc1C | 25.8 µM | 99.8% |  |
| Cc1cc(O)c(/C=N/Nc2ccccc2Cl)c(=O)o1 | 22.3 µM | 95.1% |  |
| CSC1=NSC2=NC(=O)/C(=C/c3coc4ccccc4c3=O)C(=N)N12 | > 100 µM (inactive) | 28.3% |  |
| O=C(Nc1nc(-c2ccccn2)cs1)c1ccc(Br)s1 | 5.55 µM |  | inhibition ([2]; at 12.5 µM): 99.4% |
| O=C(O)CSc1cccc[n+]1[O-] | 28.7 µM | 94.2% |  |
| C/C(=N\Nc1ccc([N+](=O)[O-])cc1)c1ccc(N)cc1 | 6.04 µM | 94.4% |  |
| O=C(O)c1ccccc1C(=O)NNc1ccc(Cl)cc1 | 7.11 µM | 96.5% |  |
| CC1CCCCN1S(=O)(=O)c1coc(C(N)=O)c1 (stereo unspecified) | > 100 µM (inactive) |  | inhibition ([2]; at 3.125 µM): 3.72% |

| SMILES | IC50 [1] | inhibition ([2]; at 50 µM) | further results |
| --- | --- | --- | --- |
| COc1ccc(N)c2c1C(=O)c1ccccc1C2=O | > 100 µM (inactive) |  | inhibition ([2]; at 25 µM): 22.5% |
| O=C(N/N=C/c1cc2c3c(c1O)CCCN3CCC2)c1ccccc1O | 48.1 µM | 49.5% |  |
| CCCC1COC(Cn2cncn2)(c2ccc(C)cc2)O1 (stereo unspecified) | 1.83 µM |  | inhibition ([2]; at 25 µM): 94.7% |
| Nc1c(C(=O)NCCc2ccccc2)c2nc3ccccc3nc2n1CCN1CCOCC1 | 42.4 µM | 99.8% |  |
| Cc1cc(C(=O)N/N=C/c2cccc([N+](=O)[O-])c2O)n[nH]1 | > 100 µM (inactive) |  | inhibition ([2]; at 6.25 µM): 19.4% |
| c1ccc(-c2ccc(OCCCn3cncn3)cc2)cc1 | 34.1 µM |  | inhibition ([2]; at 25 µM): 57.7% |
| Cc1nc2ccccc2c2c1C(=O)N(C)C2=O | > 100 µM (inactive) |  | inhibition ([2]; at 12.5 µM): 20.3% |
| O=C(Nc1cccc(N=Cc2cc(Br)cc(Br)c2O)c1)c1ccco1 | 11.1 µM | 100% |  |
| Cn1c(C(C#N)C(=O)c2ccco2)nc2ccccc21 (stereo unspecified) | > 100 µM (inactive) | 17.5% |  |
| COc1ccc(OC)c(-c2c3cc(O)c(=O)cc-3oc3cc(O)c(O)cc23)c1 | 28.1 µM | 63.5% |  |
| CCN(CC)c1ccc(S(=O)(=O)N2CCOCC2)cc1NC(=O)CSc1cccc[n+]1[O-] | 25.3 µM | 96.5% |  |
| COc1cccc(C(=O)O/N=C(\N)Cc2ccc(Cl)cc2)c1 | 6.32 µM |  | inhibition ([2]; at 12.5 µM): 97.5% |
| CC(C)(C)c1ccc(C(=O)NC(=S)NNC(=O)c2cccs2)cc1 | 41.7 µM | 53.8% |  |
| Clc1ccc2[nH]c3c(c2c1)CCc1cn[nH]c1-3 | 5.72 µM |  | inhibition ([2]; at 25 µM): 93.8% |
| CN1CCN(C2=Cc3cc(Cl)ccc3Sc3cc(F)ccc32)CC1 | 20.4 µM | 100% |  |
| COc1ccc(-c2cc(C(=O)N3CCN(c4ncccn4)CC3)c3ccccc3n2)c(OC)c1 | > 100 µM (inactive) |  | inhibition ([2]; at 12.5 µM): 23.4% |
| Clc1ccc(COC(Cn2ccnc2)c2ccc(Cl)cc2Cl)c(Cl)c1 (stereo unspecified) | < 0.098 µM | 101% |  |
| C=C(C)COc1ccc(-c2[nH]ncc2-c2ccc(Br)cc2)c(O)c1 | > 100 µM (inactive) |  | inhibition ([2]; at 25 µM): 15.9% |
| c1ccc(Cc2nnc3sc(-c4ccco4)nn23)cc1 | > 100 µM (inactive) |  | inhibition ([2]; at 25 µM): 4.05% |
| Cc1cccnc1Nc1nc(-c2ccccn2)cs1 | 37.9 µM | 94.5% |  |
| Oc1c(CN2CCCCC2)cc(Br)c2cccnc12 | 7.22 µM | 99.8% |  |

| SMILES | IC50 [1] | inhibition ([2]; at 50 µM) | further results |
| --- | --- | --- | --- |
| O=c1cc(-c2ccncc2)oc2ccccc12 | > 100 µM (inactive) |  | inhibition ([2]; at 3.125 µM): 20.9% |
| O=C(Nc1nnc(C2CC2)s1)c1ccccn1 | > 100 µM (inactive) | 22.8% |  |
| Cc1nnc(NC(=O)CSc2nnc(Cc3cccn3C)n2-c2ccccc2)s1 | > 100 µM (inactive) |  | inhibition ([2]; at 0.781 µM): 11.8% |
| Cc1ccc(C(=O)O/N=C/c2c(N3CCOCC3)n(C)c3ccccc23)cc1 | > 100 µM (inactive) |  | inhibition ([2]; at 6.25 µM): 18.7% |
| Cc1ccc(/C(N)=N/OC(=O)c2ccc(C)cc2Cl)cc1 | 8.59 µM | 98.4% |  |
| CCOC(=O)c1c(/N=C/c2cccc([N+](=O)[O-])c2O)sc(C)c1C | 30.7 µM | 58.5% |  |
| Clc1ccc(CCNc2nc3ccccc3s2)cc1 | > 100 µM (inactive) |  | inhibition ([2]; at 0.195 µM): -6.19% |
| C/C(O)=c1/ccc2cccc3nc(C)nc1c23 | > 100 µM (inactive) |  | inhibition ([2]; at 25 µM): 24.2% |
| CCCCC(=O)NNC(=S)NC(=O)CCC | 29.7 µM | 75.2% |  |
| Cc1ccccc1C(=O)NNC(=S)NC(=O)COc1ccccc1 | 26.5 µM | 73.9% |  |
| COc1cccc(/C=N/Nc2ncc(C(F)(F)F)cc2Cl)c1O | > 100 µM (inactive) | 29.3% |  |
| O=C(CC(=O)c1cc(Cl)ccc1O)c1ccccc1 | > 100 µM (inactive) |  | inhibition ([2]; at 12.5 µM): 24.9% |
| CC(=O)n1cc(C(C[N+](=O)[O-])SCCN)c2ccccc21 (stereo unspecified) | 13.9 µM | 100% |  |
| Cc1cc(C)cc(N=Cc2ccc([N+](=O)[O-])s2)c1 | 12.3 µM | 100% |  |
| Cc1cc2nc(C)n3c4ccccc4nc3n2n1 | 35.3 µM | 63.4% |  |
| CC1=NOC(=O)/C1=C/c1ccc(-c2ccc(Cl)cc2)o1 | 11 µM |  | inhibition ([2]; at 25 µM): 90.5% |
| O/N=C/c1cc(Cl)ccc1OCc1cccc2ccccc12 | > 100 µM (inactive) |  | inhibition ([2]; at 0.391 µM): 11.2% |
| CC(=O)/C(=N\Nc1ccc(C)cc1)N1CCOCC1 | 5.2 µM | 96.4% |  |
| CCN(CC)N=Nc1[nH]nc2nc(C)cc(C)c12 | 48.6 µM | 55.1% |  |
| c1ccc(-c2ccc(C(c3ccccc3)n3ccnc3)cc2)cc1 (stereo unspecified) | 0.793 µM |  | inhibition ([2]; at 3.125 µM): 94.4% |
| CC(C)CC(=O)/C(=C\c1ccc(Cl)cc1Cl)n1cncn1 | 11.7 µM | 100% |  |

| SMILES | IC50 [1] | inhibition ([2]; at 50 µM) | further results |
| --- | --- | --- | --- |
| CCCc1cc(-c2n[nH]c(=S)n2C(C)c2ccccc2)cs1 (stereo unspecified) | > 100 µM (inactive) |  | inhibition ([2]; at 0.391 µM): 1.3% |
| O=C(O)CCn1cc(/C=C/C(=O)c2ccc(Cl)cc2)c(-c2ccc(Br)cc2)n1 | > 100 µM (inactive) |  | inhibition ([2]; at 12.5 µM): 15.3% |
| COc1ccc(NC(=O)CC2SC(=Nc3ccccc3)NC2=O)c(OC)c1 (stereo unspecified) | > 100 µM (inactive) |  | inhibition ([2]; at 25 µM): 23.9% |
| O=c1[nH]c2ccccc2c2nc3ccccn3c12 | > 100 µM (inactive) |  | inhibition ([2]; at 25 µM): 18.1% |
| COc1ccc2c(C)nc(Nc3nc(C)c(C)c(=O)[nH]3)nc2c1 | 44.6 µM | 50.7% |  |
| Oc1ccc(/C=C/c2nc(-c3ccccc3O)n(-c3ccccc3)n2)cc1 | 47.1 µM | 54.3% |  |
| Cc1nc(Nc2ccc(Cl)c(Cl)c2)sc1C(=O)Nc1ccccc1 | > 100 µM (inactive) | 15.6% |  |
| CC(C)CNC(=O)CN(C1CCCCC1)S(C)(=O)=O | > 100 µM (inactive) |  | inhibition ([2]; at 1.563 µM): 9.04% |
| O=C(Nc1nc(-c2ccccn2)cs1)c1ncc(Cl)c(Cl)c1Cl | > 100 µM (inactive) |  | inhibition ([2]; at 12.5 µM): 13.1% |
| CCSc1nnc(NC(=O)c2ccccn2)s1 | 12.7 µM | 97.8% |  |
| O=Cc1c(Sc2ccccc2)nc2ccccn2c1=O | > 100 µM (inactive) |  | inhibition ([2]; at 12.5 µM): 2.01% |
| CCc1cccc2c(C(=O)COC(=O)c3ccc([N+](=O)[O-])s3)c[nH]c12 | 28 µM | 99.4% |  |
| CCn1c2ccc(C)cc2c2nc3cc(C(=O)O)ccc3nc21 | 23.9 µM | 75% |  |
| CC1(C)Cc2c(C#N)c(N)sc(=S)c2CO1 | > 100 µM (inactive) |  | inhibition ([2]; at 12.5 µM): 23.1% |
| Cc1ccc(-n2c(Cl)c(Cl)nc(Cl)c2=O)cc1 | 14 µM | 102% |  |
| Cc1ccc(-n2c(C)cc(C(=O)COC(=O)c3ccc[nH]c3=O)c2C)cc1 | 27.7 µM | 67% |  |
| O=C(CSC1=NS(=O)(=O)c2ccccc21)Nc1ccccc1 | > 100 µM (inactive) | 17.7% |  |
| c1ccc(-c2nc3c(ccc4ccccc43)[nH]2)nc1 | 36.8 µM | 80.8% |  |
| Cc1ccc(N2NC(C)(c3cccs3)NC2=S)cc1 (stereo unspecified) | 12.1 µM |  | inhibition ([2]; at 25 µM): 94.1% |
| C=CCC1c2cccc(C(=O)O)c2C(=O)N1c1cccc(C)c1 (stereo unspecified) | 49.7 µM |  | inhibition ([2]; at 25 µM): 44.4% |
